Source: ChEMBL document CHEMBL1201862, “PubChem BioAssay data set” (2004)
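These data come from cells grown in 96-well plates and exposed to compound for 48 hours at five concentrations. The concentration for 50% growth inhibition is given as GI50.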 Active and inactive are the calls of the source. No stated cut-off is given here; in the data, active = GI50 up to about 1.1 µM and inactive = higher.

Columns and labels:
Test in all cases: inhibition of tumour cell growth, NCI panel, 48 h
[1] = tested on: CAKI-1
[2] = tested on: SN12C
[3] = tested on: ACHN
[4] = tested on: IGROV-1
[5] = tested on: SF-268
[6] = tested on: OVCAR-8
[7] = tested on: CCRF-CEM
[8] = tested on: SK-OV-3
[9] = tested on: RPMI-8226
[10] = tested on: SW-620
[11] = tested on: SR
[12] = tested on: OVCAR-5
[13] = tested on: M14
[14] = tested on: HCT-116
[15] = tested on: TK-10
[16] = tested on: NCI/ADR-RES
[17] = tested on: SK-MEL-28
[18] = tested on: NCI-H522
[19] = tested on: HOP-62
[20] = tested on: Malme-3M
[21] = tested on: MDA-N
[22] = tested on: SNB-19
[23] = tested on: HL-60
[24] = tested on: NCI-H460
[25] = tested on: HCT-15
[26] = tested on: SK-MEL-5
[27] = tested on: HCC 2998
[28] = tested on: Hs-578T
[29] = tested on: A498
[30] = tested on: DU-145
[31] = tested on: OVCAR-4
[32] = tested on: PC-3
[33] = tested on: SF-539
[34] = tested on: 786-0
[35] = tested on: KM12
[36] = tested on: T47D
[37] = tested on: A549
[38] = tested on: EKVX
[39] = tested on: U-251
[40] = tested on: NCI-H226
[41] = tested on: SK-MEL-2
[42] = tested on: LOX IMVI
[43] = tested on: SNB-75
[44] = tested on: RXF 393
[45] = tested on: SF-295
[46] = tested on: HOP-92
[47] = tested on: OVCAR-3
[48] = tested on: MDA-MB-435
[49] = tested on: BT-549
[50] = tested on: UO-31
[51] = tested on: MCF7
[52] = tested on: COLO 205
[53] = tested on: MOLT-4
[54] = tested on: UACC-62
[55] = tested on: K562
[56] = tested on: HT-29
[57] = tested on: UACC-257
[58] = tested on: MDA-MB-231
[59] = tested on: NCI-H23

## CC1OC(OC2C(O)C(O)C(O)C(O)C2O)C(N)CC1NC(=N)C(=O)O (stereo unspecified)
[1]
  GI50: > 100 µM (inactive)
[2]
  GI50: > 100 µM (inactive)
[3]
  GI50: > 100 µM (inactive)
[4]
  GI50: > 100 µM (inactive)
[5]
  GI50: > 100 µM (inactive)
[6]
  GI50: > 100 µM (inactive)
[7]
  GI50: > 100 µM (inactive)
[8]
  GI50: > 100 µM (inactive)
[9]
  GI50: > 100 µM (inactive)
[10]
  GI50: > 100 µM (inactive)
[11]
  GI50: > 100 µM (inactive)
[12]
  GI50: > 100 µM (inactive)
[13]
  GI50: > 100 µM (inactive)
[14]
  GI50: > 100 µM (inactive)
[15]
  GI50: > 100 µM (inactive)
[16]
  GI50: > 100 µM (inactive)
[17]
  GI50: > 100 µM (inactive)
[18]
  GI50: > 100 µM (inactive)
[19]
  GI50: > 100 µM (inactive)
[20]
  GI50: > 100 µM (inactive)
[21]
  GI50: > 100 µM (inactive)
[22]
  GI50: > 100 µM (inactive)
[23]
  GI50: > 100 µM (inactive)
[24]
  GI50: > 100 µM (inactive)
[25]
  GI50: > 100 µM
[26]
  GI50: > 100 µM (inactive)
[27]
  GI50: > 100 µM (inactive)
[28]
  GI50: > 100 µM (inactive)
[29]
  GI50: > 100 µM (inactive)
[30]
  GI50: > 100 µM (inactive)
[31]
  GI50: > 100 µM (inactive)
[32]
  GI50: > 100 µM (inactive)
[33]
  GI50: > 100 µM (inactive)
[34]
  GI50: > 100 µM (inactive)
[35]
  GI50: > 100 µM (inactive)
[36]
  GI50: > 100 µM (inactive)
[37]
  GI50: > 100 µM (inactive)
[38]
  GI50: > 100 µM (inactive)
[39]
  GI50: > 100 µM (inactive)
[40]
  GI50: > 100 µM (inactive)
[41]
  GI50: > 100 µM (inactive)
[42]
  GI50: > 100 µM (inactive)
[43]
  GI50: > 100 µM (inactive)
[44]
  GI50: > 100 µM (inactive)
[45]
  GI50: > 100 µM (inactive)
[46]
  GI50: > 100 µM (inactive)
[47]
  GI50: > 100 µM (inactive)
[48]
  GI50: > 100 µM (inactive)
[49]
  GI50: > 100 µM (inactive)
[50]
  GI50: > 100 µM (inactive)
[51]
  GI50: > 100 µM (inactive)
[52]
  GI50: > 100 µM (inactive)
[53]
  GI50: > 100 µM (inactive)
[54]
  GI50: > 100 µM (inactive)
[55]
  GI50: > 100 µM (inactive)
[56]
  GI50: > 100 µM (inactive)
[57]
  GI50: > 100 µM (inactive)
[58]
  GI50: > 100 µM (inactive)
[59]
  GI50: > 100 µM (inactive)

## CC(=O)NC1C(O)C(O)C(CO)OC1n1ncc(=O)[nH]c1=O (stereo unspecified)
[1]
  GI50: > 100 µM (inactive)
[2]
  GI50: > 100 µM (inactive)
[3]
  GI50: > 100 µM (inactive)
[4]
  GI50: > 100 µM (inactive)
[5]
  GI50: > 100 µM (inactive)
[6]
  GI50: > 100 µM (inactive)
[7]
  GI50: > 100 µM (inactive)
[8]
  GI50: > 100 µM (inactive)
[9]
  GI50: > 100 µM (inactive)
[10]
  GI50: > 100 µM (inactive)
[11]
  GI50: > 100 µM (inactive)
[12]
  GI50: > 100 µM (inactive)
[13]
  GI50: > 100 µM (inactive)
[14]
  GI50: > 100 µM (inactive)
[15]
  GI50: > 100 µM (inactive)
[16]
  GI50: > 100 µM (inactive)
[17]
  GI50: > 100 µM (inactive)
[18]
  GI50: > 100 µM (inactive)
[19]
  GI50: > 100 µM (inactive)
[20]
  GI50: > 100 µM (inactive)
[21]
  GI50: > 100 µM (inactive)
[22]
  GI50: > 100 µM (inactive)
[23]
  GI50: > 100 µM (inactive)
[24]
  GI50: > 100 µM (inactive)
[25]
  GI50: > 100 µM
[26]
  GI50: > 100 µM (inactive)
[27]
  GI50: > 100 µM (inactive)
[28]
  GI50: > 100 µM (inactive)
[29]
  GI50: > 100 µM (inactive)
[30]
  GI50: > 100 µM (inactive)
[31]
  GI50: > 100 µM (inactive)
[32]
  GI50: > 100 µM (inactive)
[33]
  GI50: > 100 µM (inactive)
[34]
  GI50: > 100 µM (inactive)
[35]
  GI50: > 100 µM (inactive)
[36]
  GI50: > 100 µM (inactive)
[37]
  GI50: > 100 µM (inactive)
[38]
  GI50: > 100 µM (inactive)
[39]
  GI50: > 100 µM (inactive)
[40]
  GI50: > 100 µM (inactive)
[41]
  GI50: > 100 µM (inactive)
[42]
  GI50: > 100 µM (inactive)
[43]
  GI50: > 100 µM (inactive)
[44]
  GI50: > 100 µM (inactive)
[45]
  GI50: > 100 µM (inactive)
[46]
  GI50: > 100 µM (inactive)
[47]
  GI50: > 100 µM (inactive)
[48]
  GI50: > 100 µM (inactive)
[49]
  GI50: > 100 µM (inactive)
[50]
  GI50: > 100 µM (inactive)
[51]
  GI50: > 100 µM (inactive)
[52]
  GI50: > 100 µM (inactive)
[53]
  GI50: > 100 µM (inactive)
[54]
  GI50: > 100 µM (inactive)
[55]
  GI50: > 100 µM (inactive)
[56]
  GI50: > 100 µM (inactive)
[57]
  GI50: > 100 µM (inactive)
[58]
  GI50: > 100 µM (inactive)
[59]
  GI50: > 100 µM (inactive)

## COc1ccccc1NC(=O)CC(=O)NN
[1]
  GI50: > 100 µM (inactive)
[2]
  GI50: > 100 µM (inactive)
[3]
  GI50: > 100 µM (inactive)
[4]
  GI50: > 100 µM (inactive)
[5]
  GI50: > 100 µM (inactive)
[6]
  GI50: > 100 µM (inactive)
[7]
  GI50: > 100 µM (inactive)
[8]
  GI50: > 100 µM (inactive)
[9]
  GI50: > 100 µM (inactive)
[10]
  GI50: > 100 µM (inactive)
[11]
  GI50: > 100 µM (inactive)
[12]
  GI50: > 100 µM (inactive)
[14]
  GI50: > 100 µM (inactive)
[15]
  GI50: > 100 µM (inactive)
[16]
  GI50: 9.77 µM (inactive)
[17]
  GI50: > 100 µM (inactive)
[18]
  GI50: > 100 µM (inactive)
[19]
  GI50: > 100 µM (inactive)
[20]
  GI50: > 100 µM (inactive)
[21]
  GI50: > 100 µM (inactive)
[22]
  GI50: > 100 µM (inactive)
[23]
  GI50: > 100 µM (inactive)
[24]
  GI50: > 100 µM (inactive)
[25]
  GI50: > 100 µM
[26]
  GI50: > 100 µM (inactive)
[27]
  GI50: 11.9 µM (inactive)
[28]
  GI50: > 100 µM (inactive)
[29]
  GI50: > 100 µM (inactive)
[30]
  GI50: > 100 µM (inactive)
[31]
  GI50: > 100 µM (inactive)
[32]
  GI50: > 100 µM (inactive)
[33]
  GI50: > 100 µM (inactive)
[34]
  GI50: > 100 µM (inactive)
[35]
  GI50: > 100 µM (inactive)
[36]
  GI50: > 100 µM (inactive)
[37]
  GI50: > 100 µM (inactive)
[38]
  GI50: > 100 µM (inactive)
[39]
  GI50: > 100 µM (inactive)
[40]
  GI50: > 100 µM (inactive)
[41]
  GI50: > 100 µM (inactive)
[42]
  GI50: > 100 µM (inactive)
[43]
  GI50: > 100 µM (inactive)
[44]
  GI50: > 100 µM (inactive)
[45]
  GI50: > 100 µM (inactive)
[46]
  GI50: > 100 µM (inactive)
[47]
  GI50: > 100 µM (inactive)
[48]
  GI50: > 100 µM (inactive)
[49]
  GI50: > 100 µM (inactive)
[50]
  GI50: > 100 µM (inactive)
[51]
  GI50: > 100 µM (inactive)
[52]
  GI50: > 100 µM (inactive)
[53]
  GI50: > 100 µM (inactive)
[54]
  GI50: > 100 µM (inactive)
[55]
  GI50: > 100 µM (inactive)
[56]
  GI50: > 100 µM (inactive)
[57]
  GI50: > 100 µM (inactive)
[58]
  GI50: > 100 µM (inactive)
[59]
  GI50: > 100 µM (inactive)
